Measured values taken from patent US20230278972A1, “SUBSTITUTED HALOALKYL SULFONANILIDE HERBICIDES” (FMC Corporation, priority 2020, published 2023).

Legend:
Format in all cases: in vivo
[1] = test system: blackgrass (Alopecurus myosuroides); experiment: Test A postemergence, blackgrass; conditions: Postemergence, 0 to 100 scale (0 no effect, 100 complete control); for Plant response rating, Blackgrass: 125 g ai/ha; for Blackgrass plant response rating: 500 g ai/ha, visual injury vs untreated controls after approx. 10 days
How it was run: (§1)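 Compounds in non-phytotoxic solvent with surfactant. Soil: loam/sand. Preemergence via directed soil spray after seeding; postemergence on seedlings 2–10 cm, one- to two-leaf.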

[2] = test system: barnyardgrass (Echinochloa crus-galli); experiment: Test A postemergence, barnyardgrass; conditions: Postemergence, 0 to 100 scale (0 no effect, 100 complete control); for Plant response rating, Barnyardgrass: 125 g ai/ha; for Barnyardgrass plant response rating: 500 g ai/ha, visual injury vs untreated controls after approx. 10 days
How it was run: (§2)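 Pots: loam soil/sand blend. Pre: directed soil spray at planting. Post: plants 2–10 cm, 1–2 leaf stage. Formulation: non-phytotoxic solvent + surfactant.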

[3] = test system: Foxtail, Giant (giant foxtail, Setaria faberi); experiment: Test A preemergence, Foxtail, Giant; conditions: Preemergence; for Foxtail, Giant plant response rating: 125 g ai/ha, visual injury on 0 to 100 scale (0 no effect, 100 complete control), approximately 10 days; for Plant response rating, Foxtail, Giant: 500 g ai/ha, 0 to 100 scale (0 no effect, 100 complete control)
How it was run: as §1

[4] = test system: wheat (Triticum aestivum); experiment: Test A postemergence, wheat; conditions: Postemergence, 0 to 100 scale (0 no effect, 100 complete control); for Plant response rating, Wheat: 125 g ai/ha; for Wheat plant response rating: 500 g ai/ha, visual injury vs untreated controls after approx. 10 days
How it was run: as §2

[5] = test system: ragweed (common ragweed, Ambrosia artemisiifolia); experiment: Test A postemergence, ragweed; conditions: Postemergence, 0 to 100 scale (0 no effect, 100 complete control); for Plant response rating, Ragweed: 125 g ai/ha; for Ragweed plant response rating: 500 g ai/ha, visual injury vs untreated controls after approx. 10 days
How it was run: as §1

corn (Zea mays) = experiment: Test A postemergence, corn; conditions: Postemergence, 0 to 100 scale (0 no effect, 100 complete control); for Plant response rating, Corn: 125 g ai/ha; for Corn plant response rating: 500 g ai/ha, visual injury vs untreated controls after approx. 10 days
How it was run: as §1

kochia (Bassia scoparia) [6] = experiment: Test A postemergence, kochia; conditions: Postemergence, 0 to 100 scale (0 no effect, 100 complete control); for Plant response rating, Kochia: 125 g ai/ha; for Kochia plant response rating: 500 g ai/ha, visual injury vs untreated controls after approx. 10 days
How it was run: as §1

[7] = test system: pigweed (Amaranthus retroflexus); experiment: Test A postemergence, pigweed; conditions: Postemergence, 0 to 100 scale (0 no effect, 100 complete control); for Plant response rating, Pigweed: 125 g ai/ha; for Pigweed plant response rating: 500 g ai/ha, visual injury vs untreated controls after approx. 10 days
How it was run: as §1

kochia (Bassia scoparia) [8] = experiment: Test A preemergence, kochia; conditions: Preemergence; for Kochia plant response rating: 125 g ai/ha, visual injury on 0 to 100 scale (0 no effect, 100 complete control), approximately 10 days; for Plant response rating, Kochia: 500 g ai/ha, 0 to 100 scale (0 no effect, 100 complete control)
How it was run: as §1

[9] = test system: barnyardgrass (Echinochloa crus-galli); experiment: Test A preemergence, barnyardgrass; conditions: Preemergence; for Barnyardgrass plant response rating: 125 g ai/ha, visual injury on 0 to 100 scale (0 no effect, 100 complete control), approximately 10 days; for Plant response rating, Barnyardgrass: 500 g ai/ha, 0 to 100 scale (0 no effect, 100 complete control)
How it was run: as §1

[10] = test system: ragweed (common ragweed, Ambrosia artemisiifolia); experiment: Test A preemergence, ragweed; conditions: Preemergence; for Ragweed plant response rating: 125 g ai/ha, visual injury on 0 to 100 scale (0 no effect, 100 complete control), approximately 10 days; for Plant response rating, Ragweed: 500 g ai/ha, 0 to 100 scale (0 no effect, 100 complete control)
How it was run: as §1

[11] = test system: galium (catchweed bedstraw, Galium aparine); experiment: Test A postemergence, galium; conditions: Postemergence, 0 to 100 scale (0 no effect, 100 complete control); for Plant response rating, Galium: 125 g ai/ha; for Galium plant response rating: 500 g ai/ha, visual injury vs untreated controls after approx. 10 days
How it was run: as §2

[12] = test system: Foxtail, Giant (giant foxtail, Setaria faberi); experiment: Test A postemergence, Foxtail, Giant; conditions: Postemergence, 0 to 100 scale (0 no effect, 100 complete control); for Plant response rating, Foxtail, Giant: 125 g ai/ha; for Foxtail, Giant plant response rating: 500 g ai/ha, visual injury vs untreated controls after approx. 10 days
How it was run: as §1

[13] = test system: pigweed (Amaranthus retroflexus); experiment: Test A preemergence, pigweed; conditions: for Pigweed plant response rating: 125 g ai/ha, visual injury on 0 to 100 scale (0 no effect, 100 complete control), approximately 10 days; for Plant response rating, Pigweed: 500 g ai/ha, 0 to 100 scale (0 no effect, 100 complete control)
How it was run: as §2

[14] = test system: Ryegrass, Italian (Italian ryegrass, Lolium multiflorum); experiment: Test A postemergence, Ryegrass, Italian; conditions: Postemergence, 0 to 100 scale (0 no effect, 100 complete control); for Plant response rating, Ryegrass, Italian: 125 g ai/ha; for Ryegrass, Italian plant response rating: 500 g ai/ha, visual injury vs untreated controls after approx. 10 days
How it was run: as §1

[15] = test system: Ryegrass, Italian (Italian ryegrass, Lolium multiflorum); experiment: Test A preemergence, Ryegrass, Italian; conditions: Preemergence; for Ryegrass, Italian plant response rating: 125 g ai/ha, visual injury on 0 to 100 scale (0 no effect, 100 complete control), approximately 10 days; for Plant response rating, Ryegrass, Italian: 500 g ai/ha, 0 to 100 scale (0 no effect, 100 complete control)
How it was run: as §1

Compound	Plant response rating, Blackgrass [1]	Blackgrass plant response rating [1]	Plant response rating, Barnyardgrass [2]	Barnyardgrass plant response rating [2]	Foxtail, Giant plant response rating [3]	Plant response rating, Foxtail, Giant [3]	Plant response rating, Wheat [4]	Wheat plant response rating [4]	Plant response rating, Ragweed [5]	Ragweed plant response rating [5]	Plant response rating, Corn (corn (Zea mays))	Corn plant response rating (corn (Zea mays))	Plant response rating, Kochia (kochia (Bassia scoparia) [6])	Kochia plant response rating (kochia (Bassia scoparia) [6])	Plant response rating, Pigweed [7]	Pigweed plant response rating [7]	Kochia plant response rating (kochia (Bassia scoparia) [8])	Plant response rating, Kochia (kochia (Bassia scoparia) [8])	Barnyardgrass plant response rating [9]	Plant response rating, Barnyardgrass [9]	also measured
Cc1cc(Cl)c(C2=NOC3(CCCC3)C2)cc1NS(=O)(=O)C(F)(F)F [Compound 185]	0	10	0	20	50	100	0	0	0	40	0	0	0	10	0	40	0	0	70	100	Ragweed plant response rating [10]: 20; Plant response rating, Ragweed [10]: 70; Plant response rating, Galium [11]: 30; Galium plant response rating [11]: 70; Plant response rating, Foxtail, Giant [12]: 0; Foxtail, Giant plant response rating [12]: 0; Pigweed plant response rating [13]: 50; Plant response rating, Pigweed [13]: 80; Plant response rating, Ryegrass, Italian [14]: 0; Ryegrass, Italian plant response rating [14]: 0; Ryegrass, Italian plant response rating [15]: 50; Plant response rating, Ryegrass, Italian [15]: 100
Cc1cc(Cl)c(C2=NOC3(CCCC3)C2)cc1N(S(=O)(=O)C(F)(F)F)S(=O)(=O)C(F)(F)F [Compound 186]	0	20	10	20	60	100	0	30	40	60	0	30	10	40	0	50	20	70	60	100	Ragweed plant response rating [10]: 20; Plant response rating, Ragweed [10]: 50; Plant response rating, Galium [11]: 60; Galium plant response rating [11]: 80; Plant response rating, Foxtail, Giant [12]: 0; Foxtail, Giant plant response rating [12]: 20; Pigweed plant response rating [13]: 20; Plant response rating, Pigweed [13]: 80; Plant response rating, Ryegrass, Italian [14]: 0; Ryegrass, Italian plant response rating [14]: 20; Ryegrass, Italian plant response rating [15]: 60; Plant response rating, Ryegrass, Italian [15]: 100
C#CCN(CC#C)C(=O)c1cc(NS(=O)(=O)C(F)(F)F)c(C)cc1C [Compound 187]	20	20	90	90	100	100	70	70	80	90	80	90	50	70	30	60	80	80	100	100	Ragweed plant response rating [10]: 70; Plant response rating, Ragweed [10]: 90; Plant response rating, Galium [11]: 80; Galium plant response rating [11]: 80; Plant response rating, Foxtail, Giant [12]: 80; Foxtail, Giant plant response rating [12]: 90; Pigweed plant response rating [13]: 70; Plant response rating, Pigweed [13]: 80; Plant response rating, Ryegrass, Italian [14]: 90; Ryegrass, Italian plant response rating [14]: 80; Ryegrass, Italian plant response rating [15]: 100; Plant response rating, Ryegrass, Italian [15]: 100
